Experimental data: PubChem BioAssay AID248 (DTP/NCI, 2004)
Where “and” joins values, the source holds several entries; their conditions need not be identical. Equal values may be shown once. Toxic doses and inconclusive results are not listed. No stated cut-off is given here; in the data, active means T/C of 150% or more; inactive means T/C below 125%.

Test system: L1210 leukemia ip in BDF1 mice, survival T/C
Assay: NCI In Vivo Anticancer Drug Screen. Data for tumor model L1210 Leukemia (intraperitoneal) in B6D2F1 (BDF1) mice
Conditions: endpoint: mean survival time, higher = longer survival
Outline: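 Value reflects the ratio of survival in compound-treated mice to survival in vehicle-treated controls, with both groups carrying the same transplanted tumor.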

[1] = dose: 100.0 mg/kg/injection, schedule: Q01DX001 (ip), vehicle: saline with Tween-80
[2] = dose: 100.0 mg/kg/injection, schedule: Q01DX009 (ip), vehicle: saline with Tween-80
[3] = dose: 100.0 mg/kg/injection, schedule: Q04DX003 (ip), vehicle: saline with Tween-80
[4] = dose: 200.0 mg/kg/injection, schedule: Q01DX009 (ip), vehicle: saline with Tween-80
[5] = dose: 200.0 mg/kg/injection, schedule: Q04DX003 (ip), vehicle: saline with Tween-80
[6] = dose: 400.0 mg/kg/injection, schedule: Q04DX003 (ip), vehicle: saline with Tween-80
[7] = dose: 400.0 mg/kg/injection, schedule: Q01DX001 (ip), vehicle: saline
[8] = dose: 100.0 mg/kg/injection, schedule: Q04DX002 (ip), vehicle: Klucel (hydroxypropylcellulose) (HPC)
[9] = dose: 100.0 mg/kg/injection, schedule: Q04DX003 (ip), vehicle: Klucel (hydroxypropylcellulose) (HPC)
[10] = dose: 200.0 mg/kg/injection, schedule: Q04DX003 (ip), vehicle: Klucel (hydroxypropylcellulose) (HPC)
[11] = dose: 100.0 mg/kg/injection, schedule: Q01DX009 (ip), vehicle: Klucel (hydroxypropylcellulose) (HPC)
[12] = dose: 200.0 mg/kg/injection, schedule: Q01DX009 (ip), vehicle: Klucel (hydroxypropylcellulose) (HPC)
[13] = dose: 400.0 mg/kg/injection, schedule: Q01DX009 (ip), vehicle: Klucel (hydroxypropylcellulose) (HPC)
[14] = dose: 75.0 mg/kg/injection, schedule: Q04DX003 (ip), vehicle: saline

Measured: T/C

CCOC(=O)c1ccc(NC(=O)Nc2cccc(O)c2)cc1
inactive: [1] 89 % of control | [2] 95 % of control | dose: 100.0 mg/kg/injection, schedule: Q04DX002 (ip), vehicle: saline with Tween-80 99 % of control and 110 % of control | [3] 95 % of control | dose: 200.0 mg/kg/injection, schedule: Q01DX001 (ip), vehicle: saline with Tween-80 98 % of control | [4] 99 % of control | dose: 200.0 mg/kg/injection, schedule: Q04DX002 (ip), vehicle: saline with Tween-80 99 % of control and 106 % of control | [5] 93 % of control | dose: 400.0 mg/kg/injection, schedule: Q01DX001 (ip), vehicle: saline with Tween-80 94 % of control | dose: 400.0 mg/kg/injection, schedule: Q01DX009 (ip), vehicle: saline with Tween-80 95 % of control | dose: 400.0 mg/kg/injection, schedule: Q04DX002 (ip), vehicle: saline with Tween-80 103 % of control and 104 % of control | [6] 94 % of control

C=C(Br)CNC(=O)NCC
inactive: dose: 25.0 mg/kg/injection, schedule: Q01DX009 (ip), vehicle: saline with Tween-80 94 % of control | dose: 50.0 mg/kg/injection, schedule: Q01DX009 (ip), vehicle: saline with Tween-80 91 % of control | [2] 105 % of control | [3] 97 % of control

CCOc1ccccc1/C=N\NC(=O)CCCC(=O)N/N=C/c1ccccc1OCC
inactive: [7] 111 % of control

NC(=Nc1ccccc1)c1ccc(Cl)cc1
inactive: dose: 25.0 mg/kg/injection, schedule: Q04DX002 (ip), vehicle: Klucel (hydroxypropylcellulose) (HPC) 93 % of control | dose: 50.0 mg/kg/injection, schedule: Q04DX002 (ip), vehicle: Klucel (hydroxypropylcellulose) (HPC) 97 % of control | [8] 101 % of control and 115 % of control

O=C(O)C(Br)C(Br)C(=O)O.[Ag] (stereo not drawn)
inactive: dose: 9.38 mg/kg/injection, schedule: Q01DX001 (ip), vehicle: other 94 % of control | dose: 18.75 mg/kg/injection, schedule: Q01DX001 (ip), vehicle: other 94 % of control

Nc1nc(N)c2[nH]c(CCNc3ccc(C(=O)O)cc3)nc2n1
inactive: dose: 6.25 mg/kg/injection, schedule: Q01DX001 (ip), vehicle: saline with Tween-80 96 % of control | dose: 12.5 mg/kg/injection, schedule: Q01DX001 (ip), vehicle: saline with Tween-80 92 % of control | dose: 25.0 mg/kg/injection, schedule: Q01DX001 (ip), vehicle: saline with Tween-80 94 % of control and 101 % of control | dose: 50.0 mg/kg/injection, schedule: Q01DX001 (ip), vehicle: saline with Tween-80 98 % of control | [1] 102 % of control

CC(S)CN1CC1 (stereo not drawn)
inactive: [9] 107 % of control | [10] 105 % of control

C=CSCCCCCCCC
inactive: dose: 100.0 mg/kg/injection, schedule: Q04DX003 (ip), vehicle: other 103 % of control | dose: 200.0 mg/kg/injection, schedule: Q04DX003 (ip), vehicle: other 97 % of control | dose: 400.0 mg/kg/injection, schedule: Q04DX003 (ip), vehicle: other 97 % of control

[N-]=[N+]=NC(=O)c1cccc2c1Cc1ccccc1-2
inactive: [3] 96 % of control | [5] 86 % of control | [6] 96 % of control

CCOC(=O)c1ccc(NC(=O)NCCCCCCNC(=O)Nc2ccc(C(=O)OCC)cc2)cc1
inactive: [11] 90 % of control | [12] 100 % of control | [13] 100 % of control

C/C=C1\SC(=S)NC1=O
inactive: dose: 20.0 mg/kg/injection, schedule: Q01DX001 (ip), vehicle: other 100 % of control | dose: 40.0 mg/kg/injection, schedule: Q01DX001 (ip), vehicle: other 100 % of control | dose: 80.0 mg/kg/injection, schedule: Q01DX001 (ip), vehicle: other 101 % of control

CCOC(=O)Cc1ccc2c(c1)sc(=S)n2C
inactive: [9] 96 % of control | [10] 87 % of control | dose: 400.0 mg/kg/injection, schedule: Q04DX003 (ip), vehicle: Klucel (hydroxypropylcellulose) (HPC) 92 % of control

COc1cc(/C(C)=C2\SC(=O)NC2=O)ccc1O
inactive: dose: 100.0 mg/kg/injection, schedule: Q01DX001 (ip), vehicle: saline 106 % of control | dose: 200.0 mg/kg/injection, schedule: Q01DX001 (ip), vehicle: saline 95 % of control | [7] 98 % of control

O=c1[nH]c(Cl)nc2c(Cl)c(C(Cl)(Cl)Cl)nn12
inactive: [2] 95 % of control | [3] 101 % of control | [4] 93 % of control | [5] 94 % of control | [6] 92 % of control

Nc1cc2[nH]cnc2c(Br)n1
inactive: dose: 100.0 mg/kg/injection, schedule: Q04DX003 (ip), vehicle: water 116 % of control | dose: 200.0 mg/kg/injection, schedule: Q04DX003 (ip), vehicle: water 116 % of control | dose: 400.0 mg/kg/injection, schedule: Q04DX003 (ip), vehicle: water 102 % of control

CCCCCCCCCCCCCCOS(=O)(=O)O
inactive: dose: 37.5 mg/kg/injection, schedule: Q04DX003 (ip), vehicle: saline 100 % of control | dose: 75.0 mg/kg/injection, schedule: Q01DX001 (ip), vehicle: saline 95 % of control | [14] 94 % of control | dose: 150.0 mg/kg/injection, schedule: Q01DX001 (ip), vehicle: saline 92 % of control | dose: 150.0 mg/kg/injection, schedule: Q04DX003 (ip), vehicle: saline 92 % of control

NC(=O)COc1ccc(Cl)c2ccccc12
inactive: dose: 100.0 mg/kg/injection, schedule: Q01DX001 (ip), vehicle: Klucel (hydroxypropylcellulose) (HPC) 96 % of control | [8] 86 % of control | dose: 200.0 mg/kg/injection, schedule: Q01DX001 (ip), vehicle: Klucel (hydroxypropylcellulose) (HPC) 102 % of control | dose: 200.0 mg/kg/injection, schedule: Q04DX002 (ip), vehicle: Klucel (hydroxypropylcellulose) (HPC) 99 % of control | dose: 400.0 mg/kg/injection, schedule: Q01DX001 (ip), vehicle: Klucel (hydroxypropylcellulose) (HPC) 86 % of control | dose: 400.0 mg/kg/injection, schedule: Q04DX002 (ip), vehicle: Klucel (hydroxypropylcellulose) (HPC) 99 % of control

O=P(OCCCl)(OCCCl)C(c1ccccc1)(c1ccccc1)c1ccccc1
inactive: [11] 105 % of control | [12] 96 % of control | [13] 93 % of control

CC/C(=C(\CC)c1ccc(OCCOS(=O)(=O)c2ccccc2)cc1)c1ccc(OCCOS(=O)(=O)c2ccccc2)cc1
inactive: dose: 12.5 mg/kg/injection, schedule: Q04DX002 (ip), vehicle: saline 101 % of control | dose: 25.0 mg/kg/injection, schedule: Q04DX002 (ip), vehicle: saline 101 % of control | dose: 50.0 mg/kg/injection, schedule: Q04DX002 (ip), vehicle: saline 101 % of control

CCCCCCCCCCCCSC(=N)N
inactive: dose: 12.5 mg/kg/injection, schedule: Q01DX009 (ip), vehicle: acetone 103 % of control | dose: 12.5 mg/kg/injection, schedule: Q04DX003 (ip), vehicle: saline with Tween-80 98 % of control | dose: 25.0 mg/kg/injection, schedule: Q01DX009 (ip), vehicle: acetone 95 % of control | dose: 25.0 mg/kg/injection, schedule: Q04DX003 (ip), vehicle: saline with Tween-80 100 % of control | dose: 25.0 mg/kg/injection, schedule: Q04DX003 (ip), vehicle: saline 104 % of control | dose: 35.0 mg/kg/injection, schedule: Q04DX003 (ip), vehicle: saline 89 % of control | dose: 50.0 mg/kg/injection, schedule: Q04DX003 (ip), vehicle: saline with Tween-80 95 % of control | dose: 50.0 mg/kg/injection, schedule: Q04DX003 (ip), vehicle: saline 91 % of control | [14] 89 % of control | dose: 100.0 mg/kg/injection, schedule: Q04DX003 (ip), vehicle: saline 94 % of control and 95 % of control | dose: 115.0 mg/kg/injection, schedule: Q04DX003 (ip), vehicle: saline 97 % of control
